Key:
pKa of GLP1RA = type: physicochemical; conditions: weak acid
[1] = aqueous solubility across the physiologic pH range and in simulated physiological fluids; type: physicochemical; conditions: across the physiologic pH range as well as in simulated physiological fluids

## Cc1cc(-n2nc3c(c2-n2ccn(-c4ccc5c(cnn5C)c4F)c2=O)[C@H](C)N(C(=O)c2cc4cc([C@H]5CCOC(C)(C)C5)ccc4n2[C@@]2(c4noc(=O)[nH]4)C[C@@H]2C)CC3)cc(C)c1F [GLP1RA, 3-[(1S,2S)-1-[5-[(4S)-2,2-dimethyloxan-4-yl]-2-[(4S)-2-(4-fluoro-3,5-dimethylphenyl)-3-[3-(4-fluoro-1-methylindazol-5-yl)-2-oxoimidazol-1-yl]-4-methyl-6,7-dihydro-4H-pyrazolo[4,3-c]pyridine-5-carbonyl]indol-1-yl]-2-methylcyclopropyl]-4H-1,2,4-oxadiazol-5-one]
pKa of GLP1RA
  pKa: 5.1
[1]
  aqueous solubility: very low
